The supplement of paper PMC5412046
Counter-ions that a name gives are not always drawn.

Key:
SB.msgc-1 [1] = assay: area under the dose-response curve of % viability (trapezoidal, 11 doses) (% viability x log10 concentration); higher = less cytotoxic; conditions: SB.msgc-1 (sporadic gastric cancer)
Outline: (§1)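 Viability values are normalised to DMSO and given either at the highest concentration or as trapezoidal area under the curve. The assay used 500 hereditary or sporadic patient-derived gastric cancer cells in 5 μL medium per 1536 well, dosed by pintool with 23 nL of compound in DMSO at 11 threefold-diluted concentrations. CellTiter-Glo was added 48 h later for 30 min at room temperature, followed by luminescence reading on a ViewLux.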

SB.mhdgc-1 [2] = assay: as above; conditions: SB.mhdgc-1 (hereditary c.1380delA CDH1 gastric cancer)
Outline: as §1

SB.msgc-1 [3] = assay: viability at highest tested concentration (MAXR) relative to DMSO; higher = less cytotoxic; conditions: SB.msgc-1 (sporadic gastric cancer)
Outline: as §1

SB.mhdgc-1 [4] = assay: as above; conditions: SB.mhdgc-1 (hereditary c.1380delA CDH1 gastric cancer)
Outline: as §1

SMILES | area under the dose-response curve (SB.msgc-1 [1]) | area under the dose-response curve (SB.mhdgc-1 [2]) | viability (SB.msgc-1 [3]) | viability (SB.mhdgc-1 [4])
CCN(CC)CCOc1ccc(/C(=C(\Cl)c2ccccc2)c2ccccc2)cc1 [Clomifene citrate] (top concentration 46.0829 µM) | 496 | 454 | 89.9% | 14.5%
CC(NC(C)(C)C)C(=O)c1cccc(Cl)c1 (stereo not drawn) [Bupropion hydrochloride] (top concentration 46.0829 µM) | 514 | 522 | 102% | 89.5%
NCCCC(N)(C(=O)O)C(F)F (stereo not drawn) [Eflornithine Hydrochloride] (top concentration 46.0829 µM) | 528 | 485 | 52.8% | 54.1%
C[C@@H]1CCO[C@H]2CN\3/C=C(/C(=O)NCC4=C(F)C=C(F)C=C4)C(=O)\C(=C3C(=O)N12)O [Dolutegravir] (top concentration 46.0829 µM) | 505 | 527 | 61.3% | 102%
Cc1csc(NC(=O)c2sc3nc4c(c(C(F)(F)F)c3c2N)CCC4)n1 [Irestatin 9389] (top concentration 46.0829 µM) | 490 | 481 | 42.3% | 42.8%
NC(CSC(c1ccccc1)(c1ccccc1)c1ccccc1)C(=O)O (stereo in doubt) [S-Trityl-L-cysteine] (top concentration 46.0829 µM) | 458 | 491 | 45.1% | 80.3%
Fc1ccc(C(c2ccc(F)cc2)N2CCN(C/C=C/c3ccccc3)CC2)cc1 [Flunarizine] (top concentration 46.0829 µM) | 529 | 574 | 74.7% | 88%
CC(C)Cc1ccc(C(C)C(=O)O)cc1 (stereo not drawn) [Ibuprofen lysine] (top concentration 23.0415 µM) | 408 | 508 | 81.2% | 129%
OC1=CC=C(C=C1)\C2=C\C(=O)C3=C(O2)C=C(O)C=C3O [Apigenin] (top concentration 46.0829 µM) | 499 | 504 | 41.1% | 20.6%
N\C1=N\C2=C(N=C[N]2COC(CO)CO)C(=O)N1 [Ganciclovir] (top concentration 46.0829 µM) | 479 | 480 | 56.4% | 62%
C[C@@H](Oc1cc(-n2cnc3ccc(CN4CCN(C)CC4)cc32)sc1C(N)=O)c1ccccc1C(F)(F)F (top concentration 46.0829 µM) | 374 | 287 | 56.5% | 6.24%
CC[C@H](C)[N]1C=C(C)C2=C1C=C(C=C2C(=O)NC\C3=C(C)\C=C(\C)NC3=O)C4=CC=C(N=C4)N5CCNCC5 [GSK126] (top concentration 46.0829 µM) | 444 | 389 | 18.6% | 3.9%
C/C(=C\c1csc(C)n1)[C@@H]1C[C@@H]2O[C@@H]2CCC[C@H](C)[C@H](O)[C@@H](C)C(=O)C(C)(C)[C@@H](O)CC(=O)O1 [Epothilone A] (top concentration 46.0829 µM) | 256 | 246 | 42.9% | 52.1%
C[C@]12CC[C@H]3[C@@H](CCC/4=C/C(=O)CC[C@]34C)[C@@H]1CC[C@@H]2O [Testosterone] (top concentration 46.0829 µM) | 468 | 486 | 75.8% | 87.8%
N/C1=N/C(=O)C/2=C(NC[C@@H](CNC3=CC=C(C=C3)C(=O)N[C@@H](CCC([O-])=O)C([O-])=O)N2C=O)\N1 [Calcium folinate] (top concentration 46.0829 µM) | 544 | 494 | 128% | 118%
COCC1(CO)C(=O)C2CCN1CC2 (stereo not drawn) [APR-246] (top concentration 46.0829 µM) | 548 | 407 | 85.1% | 2.52%

SMILES | area under the dose-response curve (SB.msgc-1 [1]) | area under the dose-response curve (SB.mhdgc-1 [2]) | viability (SB.msgc-1 [3]) | viability (SB.mhdgc-1 [4])
Cn1cnc2c(F)c(Nc3ccc(Br)cc3F)c(C(=O)NOCCO)cc21 [ARRY-162] (top concentration 46.0829 µM) | 500 | 403 | 80.5% | 67.2%
CC1COC2=C3N1\C=C(C(O)=O)/C(=O)C3=CC(=C2N4CCN(C)CC4)F (stereo not drawn) [Ofloxacin] (top concentration 46.0829 µM) | 568 | 529 | 78.1% | 92.4%
CCN1CCN(c2ccc(Nc3cc(N(C)C(=O)Nc4c(Cl)c(OC)cc(OC)c4Cl)ncn3)cc2)CC1 [BGJ-398] (top concentration 46.0829 µM) | 465 | 495 | 16% | 2.17%
Cc1ccc(-n2nc(C(C)(C)C)cc2NC(=O)Nc2ccc(OCCN3CCOCC3)c3ccccc23)cc1 [Doramapimod] (top concentration 46.0829 µM) | 508 | 488 | 48% | 21.9%
CC(=O)N1CCN(c2ccc(OCc3nn(C)c(C)c3-c3cccc4c(CCCOc5cccc6ccccc56)c(C(=O)O)n(Cc5cccnc5)c34)cc2)CC1 (top concentration 46.0829 µM) | 355 | 321 | 2.94% | 0.82%
CC(O)(C[S+](=O)([O-])c1ccc(F)cc1)C(=O)Nc1ccc(C#N)c(C(F)(F)F)c1 (stereo not drawn) [Bicalutamide] (top concentration 46.0829 µM) | 183 | 314 | 0.377% | 2.85%
CNC[C@H](O)c1cccc(O)c1 [Phenylephrine hydrochloride] (top concentration 46.0829 µM) | 541 | 506 | 122% | 99.2%
COc1ccc(CC2c3cc(OC)c(OC)cc3CC[N+]2(C)CCC(=O)OCCCCCOC(=O)CC[N+]2(C)CCc3cc(OC)c(OC)cc3C2Cc2ccc(OC)c(OC)c2)cc1OC.O=S(=O)([O-])c1ccccc1.O=S(=O)([O-])c1ccccc1 (stereo not drawn) [Cisatracurium besylate] (top concentration 7.37327 µM) | 558 | 511 | 94% | 82.9%
O=C(CO)N1CCC(c2n[nH]c(-c3ccc(Cl)cc3)c2-c2ccncn2)CC1 [SD-06] (top concentration 46.0829 µM) | 518 | 539 | 88.2% | 104%
COc1cccc2c(NCc3ccccc3)nc(-n3c(N)nc4ccccc43)nc12 (top concentration 46.0829 µM) | 424 | 425 | 0.276% | 1.2%
O=C/1\C=C(/OC(=C1)/C2=C3SC4=C(SC3=CC=C2)C=CC=C4)N5CCOCC5 [KU-0064] (top concentration 46.0829 µM) | 500 | 471 | 61.6% | 49.9%
CN(C)[C@H]\1[C@@H]2[C@@H](O)[C@H]3\C(=C(O)/[C@]2(O)C(=O)\C(=C1O)C(N)=O)C(=O)C4=C(C=CC=C4O)[C@@]3(C)O [Oxytetracycline] (top concentration 46.0829 µM) | 539 | 588 | 82.9% | 141%
CN1C2CCC1CC(OC(=O)C(CO)c1ccccc1)C2 (stereo not drawn) [Atropine] (top concentration 46.0829 µM) | 543 | 472 | 97.2% | 92%
Nc1ncnc2nc(-c3ccc(N4CCOCC4)nc3)cc(-c3cccc(Br)c3)c12 [ABT-702] (top concentration 46.0829 µM) | 505 | 596 | 40.7% | 52.2%
CCC(=C/[C@H](C)C/C=C/C(C)=C/[C@@H](C)C(=O)[C@@H](C)[C@H](O)[C@@H](C)C/C(C)=C/C(=O)O)/C=C/[C@@H]1OC(=O)C=C[C@@H]1C [Elactocin] (top concentration 1.84332 µM) | 583 | 451 | 49.9% | 18%
Cl.O[C@@H](CNC[C@H](O)[C@H]1CCc2cc(F)ccc2O1)[C@@H]1CCc2cc(F)ccc2O1 [Nebivolol] (top concentration 46.0829 µM) | 524 | 511 | 79% | 10.2%
